In ChEMBL document CHEMBL1681717, “Design and synthesis of a novel, orally active, brain penetrant, tri-substituted thiophene based JNK inhibitor” (Bioorg Med Chem Lett, 2011):

Assays:
[1] = target: Mitogen-activated protein kinase 8 (Homo sapiens, UniProt P45983); experiment: Inhibition of recombinant JNK1 after 60 mins by TR-FRET assay
[2] = target: Mitogen-activated protein kinase 10 (Homo sapiens, UniProt P53779); experiment: Inhibition of recombinant JNK3 after 60 mins by TR-FRET assay
[3] = target: Mitogen-activated protein kinase 9 (Homo sapiens, UniProt P45984); experiment: Inhibition of recombinant JNK2 after 60 mins by TR-FRET assay
Sequence of Mitogen-activated protein kinase 9 (P45984 whole entry): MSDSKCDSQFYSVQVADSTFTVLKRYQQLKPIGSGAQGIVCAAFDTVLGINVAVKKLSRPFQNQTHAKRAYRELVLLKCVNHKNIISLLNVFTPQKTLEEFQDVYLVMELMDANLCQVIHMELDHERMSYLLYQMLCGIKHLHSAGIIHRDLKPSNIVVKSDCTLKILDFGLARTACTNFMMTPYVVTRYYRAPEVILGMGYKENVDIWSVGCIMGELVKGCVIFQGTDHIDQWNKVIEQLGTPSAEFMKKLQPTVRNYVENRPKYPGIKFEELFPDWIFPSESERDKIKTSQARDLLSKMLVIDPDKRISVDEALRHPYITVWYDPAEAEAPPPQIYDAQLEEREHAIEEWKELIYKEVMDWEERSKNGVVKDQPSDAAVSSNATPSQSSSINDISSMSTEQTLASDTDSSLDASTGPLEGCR

[4] = target: Mitogen-activated protein kinase 1 (Homo sapiens, UniProt P28482); experiment: Inhibition of recombinant ERK2 after 60 mins by TR-FRET assay
Sequence of Mitogen-activated protein kinase 1 (P28482 whole entry): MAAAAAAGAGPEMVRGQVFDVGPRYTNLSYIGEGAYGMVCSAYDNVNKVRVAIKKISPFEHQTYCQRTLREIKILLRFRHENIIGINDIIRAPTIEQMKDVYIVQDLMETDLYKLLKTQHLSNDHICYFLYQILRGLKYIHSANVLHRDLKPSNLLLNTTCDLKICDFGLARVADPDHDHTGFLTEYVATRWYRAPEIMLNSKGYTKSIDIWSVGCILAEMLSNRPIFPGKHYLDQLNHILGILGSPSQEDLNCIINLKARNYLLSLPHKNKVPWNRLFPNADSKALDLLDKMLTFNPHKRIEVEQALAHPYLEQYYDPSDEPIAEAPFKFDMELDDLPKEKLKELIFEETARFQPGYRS

[5] = target: Mitogen-activated protein kinase 14 (Homo sapiens, UniProt Q16539); experiment: Inhibition of recombinant p38alpha after 60 mins by TR-FRET assay
Sequence of Mitogen-activated protein kinase 14 (Q16539 whole entry): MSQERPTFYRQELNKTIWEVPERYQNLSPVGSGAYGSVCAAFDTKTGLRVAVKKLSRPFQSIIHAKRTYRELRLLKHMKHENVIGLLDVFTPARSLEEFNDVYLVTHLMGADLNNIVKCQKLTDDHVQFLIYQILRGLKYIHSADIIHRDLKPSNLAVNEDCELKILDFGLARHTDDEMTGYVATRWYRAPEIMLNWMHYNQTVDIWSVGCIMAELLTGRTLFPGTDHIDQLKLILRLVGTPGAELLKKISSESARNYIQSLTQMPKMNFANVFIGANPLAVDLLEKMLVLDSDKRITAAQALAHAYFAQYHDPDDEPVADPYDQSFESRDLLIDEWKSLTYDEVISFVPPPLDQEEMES

[6] = Oxidative metabolic stability in mouse liver microsomes assessed as compound remaining at 5 uM after 120 mins; format: ADME, Microsome; conditions: read-out: Stability
[7] = Oxidative metabolic stability in human liver microsomes assessed as compound remaining at 5 uM after 120 mins; format: ADME, Microsome; conditions: read-out: Stability
MDR1 [8] = experiment: Apparent permeability of the compound from apical to basolateral direction in MDCK2 cells expressing MDR1; format: ADME, cell-based, Canis lupus familiaris, MDCK-II; conditions: dog, MDCK-MDR1
MDR1 [9] = experiment: Efflux ratio of permeability from basolateral to apical side over apical to basolateral side in MDCK2 cells expressing MDR1; format: ADME, cell-based, Canis lupus familiaris, MDCK-II; conditions: dog, MDCK-MDR1
[10] = Solubility of the compound in hank's buffered salt solution; format: physicochemical

Sequence of Mitogen-activated protein kinase 8 (P45983 whole entry): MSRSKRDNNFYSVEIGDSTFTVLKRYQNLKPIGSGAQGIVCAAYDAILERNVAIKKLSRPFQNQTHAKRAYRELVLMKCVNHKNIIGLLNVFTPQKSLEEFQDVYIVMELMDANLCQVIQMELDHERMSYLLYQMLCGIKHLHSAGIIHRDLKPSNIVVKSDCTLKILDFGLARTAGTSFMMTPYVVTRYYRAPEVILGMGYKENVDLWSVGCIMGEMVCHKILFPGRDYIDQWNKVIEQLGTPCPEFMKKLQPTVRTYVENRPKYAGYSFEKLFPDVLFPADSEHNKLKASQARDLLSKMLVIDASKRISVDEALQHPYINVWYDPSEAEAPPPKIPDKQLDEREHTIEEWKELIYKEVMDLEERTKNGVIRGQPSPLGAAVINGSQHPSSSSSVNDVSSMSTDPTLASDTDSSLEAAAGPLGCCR
Sequence of Mitogen-activated protein kinase 10 (P53779 whole entry): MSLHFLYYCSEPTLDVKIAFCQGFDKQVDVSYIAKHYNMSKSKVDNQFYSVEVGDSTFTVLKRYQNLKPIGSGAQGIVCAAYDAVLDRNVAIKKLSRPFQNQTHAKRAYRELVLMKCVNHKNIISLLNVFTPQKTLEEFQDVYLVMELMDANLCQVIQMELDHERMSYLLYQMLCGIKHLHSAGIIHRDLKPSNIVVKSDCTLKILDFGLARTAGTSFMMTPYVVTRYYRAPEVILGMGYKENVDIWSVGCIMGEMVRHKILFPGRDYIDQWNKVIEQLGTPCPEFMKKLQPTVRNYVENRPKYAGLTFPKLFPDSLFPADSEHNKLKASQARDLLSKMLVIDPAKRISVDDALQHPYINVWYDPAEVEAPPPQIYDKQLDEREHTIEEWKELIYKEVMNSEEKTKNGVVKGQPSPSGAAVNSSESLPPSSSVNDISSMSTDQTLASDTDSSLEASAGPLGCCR

Row | IC50 [1] [nM] | IC50 [2] [nM] | IC50 [3] [nM] | IC50 [4] [nM] | IC50 [5] [nM] | remaining at 2 h, 5 µM [6] [%] | remaining at 2 h, 5 µM [7] [%] | Papp A→B (MDR1 [8]) [×10⁻⁶ cm/s] | efflux ratio (MDR1 [9]) | solubility [10] [µM] | Structure (SMILES)
1 | 284 | 226 | 2570 | – | – | – | – | – | – | – | COC(=O)c1c(C)csc1NC(=O)Cc1ccc(OCCCN2CCCC2)cc1
2 | – | 324 | – | > 5000 | > 5000 | – | – | – | – | – | Cc1nnc(-c2c(C)csc2NC(=O)Cc2ccc(-c3ccncc3)cc2)[nH]1
3 | 590 | 700 | 3140 | – | – | – | – | – | – | – | COC(=O)c1c(C)csc1NC(=O)Cc1ccc(OC)cc1
4 | 4 | 5 | 9 | > 50000 | > 50000 | 0 | 20 | 23.3 | 0.9 | – | O=C(CN1C(=O)CCc2ccccc21)Nc1scc(Cl)c1-c1ncn[nH]1
5 | 42 | 34 | 90 | > 50000 | > 50000 | – | – | – | – | – | O=C(Cc1cccc2ncccc12)Nc1scc(Br)c1-c1ncn[nH]1
6 | 350 | 310 | 930 | – | – | – | – | – | – | – | CCOC(=O)c1c(C#N)csc1NC(=O)Cc1ccc(OC)cc1
7 | 11 | 7 | 26 | > 50000 | > 50000 | 48 | 62 | 13.3 | 4.6 | – | N#Cc1csc(NC(=O)Cc2cccc3cnccc23)c1-c1ncn[nH]1
8 | 298 | 594 | 230 | > 5000 | > 5000 | – | – | – | – | – | Cc1n[nH]c(-c2c(C)csc2NC(=O)Cc2cccc3nccnc23)n1
9 | 15600 | 9620 | 6290 | – | – | – | – | – | – | – | CCOC(=O)c1c(C2CC2)csc1NC(=O)Cc1ccc(OC)cc1
10 | 12 | 12 | 41 | 35100 | > 50000 | – | – | – | – | – | N#Cc1csc(NC(=O)Cc2cccc3ncccc23)c1-c1nnc[nH]1
11 | 331 | 465 | 824 | – | – | – | – | – | – | – | COc1ccc(CC(=O)Nc2scc(C)c2-c2nc(C)n[nH]2)cc1
12 | 32 | – | 31 | > 50000 | > 50000 | 0 | 0 | 14.8 | 3.2 | – | Cc1csc(NC(=O)CN2C(=O)CCc3ccccc32)c1-c1ncn[nH]1
13 | 95 | 162 | 765 | – | – | – | – | – | – | – | COC(=O)c1c(C)csc1NC(=O)Cc1cccc2nccnc12
14 | 463 | 197 | 1620 | > 5000 | > 5000 | – | – | – | – | – | Cc1n[nH]c(-c2c(C)csc2NC(=O)Cc2ccc(OCCCN3CCCCC3)cc2)n1
15 | 19300 | 9110 | 22500 | – | – | – | – | – | – | – | CCc1csc(NC(=O)Cc2ccc(OC)cc2)c1C(=O)OC
16 | 18900 | 38800 | > 50000 | – | – | – | – | – | – | – | CCOC(=O)c1c(C(F)(F)F)csc1NC(=O)Cc1ccc(OC)cc1

Row | IC50 [1] [nM] | IC50 [2] [nM] | IC50 [3] [nM] | IC50 [4] [nM] | IC50 [5] [nM] | remaining at 2 h, 5 µM [6] [%] | remaining at 2 h, 5 µM [7] [%] | Papp A→B (MDR1 [8]) [×10⁻⁶ cm/s] | efflux ratio (MDR1 [9]) | solubility [10] [µM] | Structure (SMILES)
17 | 1050 | 3020 | 28400 | – | – | – | – | – | – | – | C#Cc1csc(NC(=O)Cc2ccc(OC)cc2)c1C(=O)OCC
18 | 31 | 62 | 863 | – | – | – | – | – | – | – | COC(=O)c1c(C)csc1NC(=O)Cc1cccc2cnccc12
19 | 686 | 1020 | 4150 | – | – | – | – | – | – | – | COC(=O)c1c(C)csc1NC(=O)Cc1cccc2cc[nH]c12
20 | 28 | 33 | 50 | > 50000 | > 50000 | – | – | – | – | – | O=C(Cc1cccc2cnccc12)Nc1scc(Br)c1-c1ncn[nH]1
21 | 9 | 6 | 8 | > 50000 | > 50000 | 37 | 39 | 18 | 4.1 | – | N#Cc1csc(NC(=O)CN2C(=O)CCc3ccccc32)c1-c1ncn[nH]1
22 | – | – | 125 | > 50000 | > 50000 | 1 | 46 | 16.1 | – | – | Cc1csc(NC(=O)Cc2cccc3ncccc23)c1-c1ncn[nH]1
23 | 283 | 263 | 1840 | – | – | – | – | – | – | – | COC(=O)c1c(C)csc1NC(=O)Cc1ccc(-c2ccncc2)cc1
24 | 15 | 18 | 42 | > 50000 | > 50000 | – | – | – | – | – | O=C(Cc1cccc2ncccc12)Nc1scc(Cl)c1-c1ncn[nH]1
25 | 15 | 25 | 42 | > 50000 | > 50000 | – | – | – | – | – | Cc1n[nH]c(-c2c(C)csc2NC(=O)CN2C(=O)CCc3ccccc32)n1
26 | 25 | 28 | 42 | > 50000 | > 20000 | – | – | – | – | – | O=C(CN1C(=O)CCc2ccccc21)Nc1scc(Br)c1-c1ncn[nH]1
27 | 78 | 125 | 703 | – | – | – | – | – | – | – | COC(=O)c1c(C)csc1NC(=O)CN1C(=O)CCc2ccccc21
28 | – | – | 23000 | > 50000 | > 50000 | – | – | 14.4 | – | 72 | COC(=O)c1sccc1NC(=O)Cc1cccs1
29 | 45 | 80 | 81 | > 50000 | > 50000 | – | – | – | – | – | Cc1n[nH]c(-c2c(C)csc2NC(=O)Cc2cccc3ncccc23)n1
30 | 295 | 99 | 613 | – | – | – | – | – | – | – | COC(=O)c1c(C)csc1NC(=O)Cc1ccc(OCCCN2CCCCC2)cc1
31 | 55 | 110 | 409 | – | – | – | – | – | – | – | COC(=O)c1c(C)csc1NC(=O)Cc1cccc2ncccc12
32 | 597 | 504 | 4520 | – | – | – | – | – | – | – | COC(=O)c1c(C)csc1NC(=O)Cc1ccc(OCCCn2ccnc2)cc1
